According to US20210220420A1, “BOTANICAL COMPOSITIONS OF SALVIA O[…] ACTIVITY IN EXTENDING CHR[…] AND METHODS OF USE” (priority 2016, published 2021):

Experiments:
[1] = system: C. elegans strain with a pharyngeal GFP tag and a bus-5 mutation; experiment: C. elegans chronological lifespan assay versus small molecule AChE inhibitors (Example 4); format: in vivo; details: 10 mg/ml; for maximum improvement in survival: at day 13 (N350), day 12 (N355, N314), day 9 (N354); for improvement in mean life span: vs control
Description: The samples were prepared as a DMSO-based 10 mg/ml stock, aliquoted when necessary and a serial dilution of the stock solution was performed for N92-4. The stock solutions were stored at −20° C.
The assay was carried out using the standard C. elegans strain with a pharyngeal GFP tag and a bus-5 mutation. The GFP tag enables images of the worms to be captured using fluorescence microscopy. […] The worms were raised in the presence of a treatment or control on 12 well NGM agar plates, and were maintained at 20° C. with sufficient food (Escherichia coli strain OP-50).
A proprietary data analysis software package was used to analyse the effects of different active ingredients on aspects of worm ageing. The package was developed using a MATLAB image analysis algorithm which was adapted to recognise and count worms based on their fluorescence intensity above background fluorescence. A living worm is distinguished from a dead worm based on the degree of movement between two consecutive images, which enables the number of living and cumulative number of dead worms to be tracked throughout the experiment. […] A selection of images was manually checked to ensure the software had correctly identified the number of worms.
The statistical analysis output of OASIS provides Log-Rank and Fishers Exact Test results. The Log-Rank result is a non-parametric test which compares two survival functions for the overall lifespan assay, providing a reliable p-value summarising the whole experiment. The Fishers Exact Test calculates the significance of survival function comparisons at multiple specific time points throughout the experiment, rather than for the overall lifespan

Yeast = details: cited from earlier work

SMILES	Restricted mean lifespan [1] [days]	maximum improvement in lifespan [1]	maximum improvement in survival [1]	improvement in mean life span [1]	effect on lifespan (Yeast)
COc1ccc2c3c1O[C@H]1C[C@@H](O)C=C[C@@]31CCN(C)C2 [N354, Galantamine]	14.05	+15.9%	up to +11.6%	+8%	–
CCN(C)C(=O)Oc1cccc([C@H](C)N(C)C)c1 [N355, Rivastigmine]	14.04	+15.6%	up to +13.3%	+7.9%	–
Oc1ccc(C=Cc2cc(O)cc(O)c2)cc1 [Resveratrol]	–	–	–	–	able to increase lifespan in yeast
